Marks after values point to notes of the source that are not given here.
Settings: pH 2.3

| Log P | Compound |
| --- | --- |
| 3.55 | CSc1ccccc1NC(=C(C#N)C(=O)OCC(F)(F)F)c1cccnc1Cl [Compound 344] |
| 3.52 | CCOC(=O)C(C#N)=C(Nc1ccccc1OC(F)(F)F)c1cccnc1Cl [Compound 529] |
| 3.05 | CCOC(=O)C(C#N)=C(NC(C)C(F)(F)F)c1cccnc1OC (racemic) [Compound 807] |
| 3.26 | CCOC(=O)C(C#N)=C(Nc1cccc(F)c1C)c1cccnc1Cl [Compound 1610] |
| 3.44^[c]; 3.44^[b] | CC(C)C(C)NC(=C(C#N)C(=O)NC1CCC1)c1cccnc1Cl (stereo not shown) [Compound 1453] |

| Compound | Log P |
| --- | --- |
| CCOC(=O)C(C#N)=C(NC(C)C)c1cccnc1Cl [Compound 823] | 2.54 |

Same assay, conditions: pH 2.7

| Compound | Log P |
| --- | --- |
| CCOC(=O)C(C#N)=C(NC(C)Cc1c[nH]c2ccccc12)c1cn(C)nc1C(F)F (racemic) [Compound 35] | 3.25^[a] |
| CCOC(=O)C(C#N)=C(NC(C)c1sc(C)nc1C)c1sccc1Br (stereo not shown) [Compound 215] | 3.23^[a] |
| COC(=O)CC(C)NC(=C(C#N)C(=O)OC)c1cccnc1Cl (stereo not shown) [Compound 620] | 2.11^[a] |
| CCOC(=O)C(C#N)=C(NC(C)c1ccccn1)c1scnc1Cl (stereo not shown) [Compound 1462] | 2.59^[a] |
| CCOC(=O)C(C#N)=C(NCc1nc(C)cs1)c1sccc1C(F)(F)F [Compound 175] | 3.11^[a] |
| COC(=O)C(C#N)=C(NC1CCCC1)c1cccnc1Cl [Compound 763] | 2.61^[a] |
| CCOC(=O)C(C#N)=C(Nc1ccc2ncsc2c1)c1cccnc1Cl [Compound 1269] | 2.54^[a] |
| CCOC(=O)C(C#N)=C(NC1CCC1)c1cnccc1C(F)(F)F [Compound 800] | 3.06^[a] |
| CCOC(=O)C(C#N)=C(NC(C)C(N)=O)c1cccnc1C(F)(F)F (stereo not shown) [Compound 705] | 1.91^[a] |
| CCOC(=O)C(C#N)=C(NCc1ccccn1)c1cn(C)nc1C(F)F [Compound 32] | 1.94^[a] |
| CCOC(=O)C(C#N)=C(NC(C)(C)C)c1cn(C)nc1C(F)F [Compound 1418] | 2.66^[a] |
| C#CCNC(=O)C(C#N)=C(NC(C)c1nccs1)c1cn(C)nc1C(F)F (stereo not shown) [Compound 1297] | 2.04^[a] |
| C=CCOC(=O)C(C#N)=C(NC(C)C(C)C)c1cn(C)nc1C(F)F (stereo not shown) [Compound 998] | 3.31^[a] |
| CCOC(=O)C(C#N)=C(NC(C)c1cc(Cl)cc(C)n1)c1cccnc1Cl (stereo not shown) [Compound 1446] | 3.4^[a] |
| CC(NC(=C(C#N)C(=O)NC1CC1)c1cn(C)nc1C(F)F)c1nccs1 (racemic) [Compound 1279] | 2.04^[a] |
| CCOC(=O)C(C#N)=C(NC(C)c1ncccn1)c1cccnc1Cl (stereo not shown) [Compound 329] | 2.13^[a] |

| Compound | Log P |
| --- | --- |
| CCOC(=O)C(C#N)=C(NCc1nc(C)cs1)c1sc(C)nc1C(F)(F)F [Compound 195] | 2.9^[a] |
| CCOC(=O)C(C#N)=C(NC(C#N)c1ccc(Cl)cc1Cl)c1cn(C)nc1C(F)F (stereo not shown) [Compound 1231] | 3.55^[a] |
| CCOC(=O)C(C#N)=C(NC(C)c1nccs1)c1sccc1Br (stereo not shown) [Compound 85] | 3.13^[a] |
| CCOC(=O)C(C#N)=C(NC(c1cc2ccccc2s1)C(F)(F)F)c1conc1C (stereo not shown) [Compound 93] | 4.24^[a] |
| CCOC(=O)C(C#N)=C(NC(C)C)c1cccnc1Cl [Compound 823] | 2.66 |
| CCOC(=O)C(C#N)=C(NC1CSC1)c1cn(C)nc1C(F)F [Compound 1355] | 2.54^[a] |
| CCOC(=O)C(C#N)=C(NC(C)(C)C#CCOC)c1cn(C)nc1C(F)F [Compound 1101] | 2.73^[a] |
| CCOC(=O)C(C#N)=C(NC(C)c1ccccn1)c1c(C(F)F)nn(C)c1Cl (racemic) [Compound 156] | 2.81^[a] |
| CCOC(=O)C(C#N)=C(NC(C)C1(Cl)CC1)c1ccsc1Br (stereo not shown) [Compound 774] | 3.92^[a] |
| CCOC(=O)C(C#N)=C(NC(C)C1=NCCS1)c1cccnc1Cl (stereo not shown) [Compound 1629] | 2.5^[a] |
| CCOC(=O)C(C#N)=C(NC1CC1CC)c1cn(C)nc1C(F)F (stereo not shown) [Compound 1146] | 3.04^[a] |
| CCOC(=O)C(C#N)=C(NC(C)COC)c1scnc1Cl (stereo not shown) [Compound 1467] | 2.61^[a] |
| CCOC(=O)C(C#N)=C(NC(C)c1cc(Cl)ccn1)c1cccnc1Cl (stereo not shown) [Compound 1449] | 3^[a] |
| CCOC(=O)C(C#N)=C(NCC(c1ccccc1)C(C)C)c1cn(C)nc1C(F)F (racemic) [Compound 1239] | 3.94^[a] |
| CCON=C(C)C(C)NC(=C(C#N)C(=O)OCC)c1cccnc1Cl (stereo not shown) [Compound 1636] | 3.29^[a] |
| CCOC(=O)C(C#N)=C(NC(C)COCc1ccccc1)c1cn(C)nc1C(F)F (stereo not shown) [Compound 739] | 3.48^[a] |

Now from value to compound:

| Log P | Compound |
| --- | --- |
| 1.63^[a] | CCOC(=O)C(C#N)=C(NC(C)CN(C)C)c1ncc(C(F)(F)F)cc1Cl (racemic) [Compound 583] |
| 4.57^[a] | CCOC(=O)C(C#N)=C(Nc1ccccc1SC(C)C)c1cc(C)oc1C [Compound 421] |
| 3.73^[a] | CCOC(=O)C(C#N)=C(Nc1ccccc1SC)c1cn(C)cc1C(F)(F)F [Compound 548] |
| 2.84^[a] | CCOC(=O)C(C#N)=C(NC(C)c1nc(C)sc1C)c1cccnc1Cl (racemic) [Compound 1552] |
| 3.35^[a] | CCOC(=O)C(C#N)=C(NC(C)CN1CCCC1)c1cccnc1Cl (mixture of isomers) [Compound 283] |
| 4.26^[a] | CCOC(=O)C(C#N)=C(NC(C)(C)C=C(Cl)Cl)c1sccc1C(F)(F)F [Compound 1103] |
| 4.72^[a] | CCOC(=O)C(C#N)=C(NC(C)C(C)C)c1cc(Cl)sc1Cl (stereo not shown) [Compound 965] |
| 1.78^[a] | CCOC(=O)C(C#N)=C(NC(C)C(N)=O)c1cn(C)nc1C(F)(F)F (stereo not shown) [Compound 635] |
| 3.64^[a] | CCOC(=O)C(C#N)=C(NC(C)C1CC1)c1cnc(Cl)cc1Cl (stereo not shown) [Compound 890] |
| 3.94^[a] | CCOC(=O)C(C#N)=C(NCC(C)c1ccccc1Br)c1cccnc1Cl (stereo not shown) [Compound 1378] |
| 4.01^[a] | CCOC(=O)C(C#N)=C(Nc1ccccc1SC)c1sccc1C(F)(F)F [Compound 369] |
| 3.53^[a] | COC(=O)C(C#N)=C(NC(C)C1(Cl)CC1)c1sc(C)nc1C(F)(F)F (stereo not shown) [Compound 770] |
| 3.6^[a] | CCOC(=O)C(C#N)=C(Nc1ccc(OC)cc1)c1ccsc1Br [Compound 525] |
| 4.65^[a] | C=CCCCC(C=C)NC(=C(C#N)C(=O)OCC)c1sccc1Cl (stereo not shown) [Compound 1023] |
| 4.03^[a] | CCOC(=O)C(C#N)=C(NC(C)C1CC2CCC1C2)c1cn(C)nc1C(F)F (stereo not shown) [Compound 1134] |
| 5.36^[a] | CCOC(=O)C(C#N)=C(NC(C)CCCC(C)C)c1sccc1Br (stereo not shown) [Compound 928] |
| 3.02^[a] | COC(=O)C(C#N)=C(NC(C)c1cccc(C)c1)c1cccnc1Cl (stereo not shown) [Compound 396] |
| 4.14^[a] | CCOC(=O)C(C#N)=C(Nc1ccccc1SC)c1sc(Cl)nc1Cl [Compound 527] |
| 4.41^[a] | CCCc1nccc(C(NC(C)C(C)C)=C(C#N)C(=O)OCC)c1Cl (stereo not shown) [Compound 1400] |
| 5.48^[a] | CCCCCCC(C)NC(=C(C#N)C(=O)OCC)c1sccc1Br (racemic) [Compound 814] |

| Log P | Compound |
| --- | --- |
| 2.48^[a] | CCOC(=O)C(C#N)=C(NC(C)c1nccs1)c1ccnc(C)c1F (stereo not shown) [Compound 1319] |
| 3.21^[a] | CC(C)C(C)NC(=C(C#N)C(=O)Nc1ccccn1)c1cccnc1Cl (stereo not shown) [Compound 1516] |
| 1.88^[a] | CCOC(=O)C(C#N)=C(NC(C)C(N)=O)c1ccnc(Cl)c1Cl (stereo not shown) [Compound 729] |
| 3.31^[a] | CCOC(=O)C(C#N)=C(NC(C)c1nccs1)c1cc(Cl)cc(Cl)n1 (racemic) [Compound 265] |
| 3.8^[a] | CCCC(CC)NC(=C(C#N)C(=O)OCC)c1cccnc1Cl (stereo not shown) [Compound 1434] |
| 4.46^[a] | COC(=O)C(C#N)=C(NC(C)C1CCCCC1)c1sc(C)nc1C(F)(F)F (stereo not shown) [Compound 874] |
| 3.42^[a] | CCOCC(C)NC(=C(C#N)C(=O)OCC)c1cc(C)oc1C (stereo not shown) [Compound 617] |
| 3.43^[a] | CCOC(=O)C(C#N)=C(NC(C(=O)OC)C(C)C)c1cn(C)cc1C(F)(F)F (stereo not shown) [Compound 726] |
| 1.38^[a] | CNC(=O)C(C)NC(=C(C#N)C(=O)OC)c1cn(C)nc1C(F)F (stereo not shown) [Compound 601] |
| 4.36^[a] | CCOC(=O)C(C#N)=C(NC(C)c1ccc(C)cc1)c1sc(C)nc1C(F)(F)F (mixture of isomers) [Compound 451] |
| 4.65^[a] | CCOC(=O)C(C#N)=C(NC(C)c1ccc(Cl)cc1)c1nsc(Cl)c1Cl (stereo not shown) [Compound 355] |
| 2.13^[a] | CCOC(=O)C(C#N)=C(NC(C)c1cnccn1)c1cccnc1Cl (racemic) [Compound 1415] |
| 4.78^[a] | CCOC(=O)C(C#N)=C(Nc1ccc(C(C)C)cc1)c1ccsc1Br [Compound 536] |
| 3.49^[a] | CCOC(=O)C(C#N)=C(NC(C)CF)c1cc(Cl)sc1Cl (stereo not shown) [Compound 747] |
| 2.5^[a] | CCOC(=O)C(C#N)=C(NC(C)c1nccs1)c1ccnc2ccccc12 (stereo not shown) [Compound 1502] |
| 2.55^[a] | CCNC(=O)C(C#N)=C(NC(C)c1ccccn1)c1ccnc(Cl)c1Br (racemic) [Compound 1411] |
| 2.66^[a] | C=CCOC(=O)C(C#N)=C(NC(C)c1ccccn1)c1cccnc1Cl (stereo not shown) [Compound 1572] |
| 5.39^[a] | CCOC(=O)C(C#N)=C(NC(C)CCCC(C)C)c1sccc1C(F)(F)F (stereo not shown) [Compound 926] |
| 3.23^[a] | CCOC(=O)C(C#N)=C(NC(C)(C)C(=O)OC)c1sccc1Br [Compound 693] |
| 4.68^[a] | CCOC(=O)C(C#N)=C(NC(C)C(C)C)c1cc(Cl)sc1Cl (stereo not shown) [Compound 1580] |

Same assay, conditions: pH 7.5

| Compound | Log P |
| --- | --- |
| CCOC(=O)C(C#N)=C(NC(C)Cn1nc(C(F)(F)C(F)(F)F)nc1SC)c1cccnc1Cl (stereo not shown) [Compound 127] | 3.66 |
| CCOC(=O)C(C#N)=C(NC(C)C1CC1)c1ccc(C)nc1Cl (stereo not shown) [Compound 881] | 3.32 |
| CCOC(=O)C(C#N)=C(NC(C)C)c1cccnc1Cl [Compound 823] | 2.53 |
| CCOC(=O)C(C#N)=C(NC(C)c1ncc(Br)s1)c1cccnc1Cl (racemic) [Compound 128] | 3.32 |

Results, then the compound that gave them:

| Log P | Compound |
| --- | --- |
| 3.21 | CSc1ccccc1NC(=C(C#N)C(=O)OCC(F)(F)F)c1cccnc1Cl [Compound 344] |
| 3.46 | CCOC(=O)C(C#N)=C(Nc1ccccc1OC(F)(F)F)c1cccnc1Cl [Compound 529] |
| 3.04 | CCOC(=O)C(C#N)=C(NC(C)C(F)(F)F)c1cccnc1OC (racemic) [Compound 807] |
| 1.1 | CCOC(=O)C(C#N)=C(NC(C)c1nc(C(=O)O)cs1)c1cccnc1Cl (stereo not shown) [Compound 244] |
| 3.24 | CCOC(=O)C(C#N)=C(Nc1cccc(F)c1C)c1cccnc1Cl [Compound 1610] |
| 3.44^[c]; 3.44^[b] | CC(C)C(C)NC(=C(C#N)C(=O)NC1CCC1)c1cccnc1Cl (stereo not shown) [Compound 1453] |

— patent US8476197B2, “Aminopropenoates as fungicides” (priority 2009, dated 2013)
